Data taken from patent US7534894B2, “Biphenyloxy-acids” (Wyeth, priority 2003, dated 2009).

Tests used:
[1] = target: T1, recombinant human plasminogen activator inhibitor-1 (PAI-1) (Homo sapiens, UniProt P05121); assay: Primary Screen for the PAI-1 Inhibition (residual tPA activity, chromogenic substrate Spectrozyme-tPA); assay type: biochemical; details: 140 nM PAI-1, 70 nM tPA, pH 6.6
T1 construct: purchased Molecular Innovations, Royal Oak, Mich
Protocol: (§1) Test compounds are dissolved in DMSO at a final concentration of 10 mM, then diluted 101× in physiologic buffer. The inhibitory assay is initiated by the addition of the test compound (1-100 μM final concentration, maximum DMSO concentration of 0.2%) in a pH 6.6 buffer containing 140 nM recombinant human plasminogen activator inhibitor-1 (PAI-1; Molecular Innovations, Royal Oak, Mich.). Following a 1 hour incubation at room temperature, 70 nM of recombinant human tissue plasminogen activator (tPA) is added, and the combination of the test compound, PAI-1 and tPA is incubated for an additional 30 minutes. Following the second incubation, Spectrozyme-tPA (American Diagnostica, Greenwich, Conn.), a chromogenic substrate for tPA, is added and absorbance read at 405 nm at 0 and 60 minutes. Relative PAI-1 inhibition is equal to the residual tPA activity in the presence of the test compound and PAI-1. Control treatments include the complete inhibition of tPA by PAI-1 at the molar ratio employed (2:1), and the absence of any effect of the test compound on tPA alone.

[2] = target: T1, recombinant human plasminogen activator inhibitor-1 (PAI-1); assay: Kinetic IC50: modification of the Primary Screen for the PAI-1 Inhibition; assay type: biochemical
Protocol: as §1

T1 sequence (P05121 24-402): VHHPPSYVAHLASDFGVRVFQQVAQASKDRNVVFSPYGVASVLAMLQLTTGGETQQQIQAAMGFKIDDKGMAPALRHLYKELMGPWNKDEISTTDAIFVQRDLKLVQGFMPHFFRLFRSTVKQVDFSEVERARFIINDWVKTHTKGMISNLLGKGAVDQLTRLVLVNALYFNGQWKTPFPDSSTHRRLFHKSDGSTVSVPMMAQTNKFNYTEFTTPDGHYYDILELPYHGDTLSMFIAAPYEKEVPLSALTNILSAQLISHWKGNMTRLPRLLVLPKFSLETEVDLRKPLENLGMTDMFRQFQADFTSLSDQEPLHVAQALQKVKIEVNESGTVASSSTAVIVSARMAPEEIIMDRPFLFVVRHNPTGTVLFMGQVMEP

Compound	inhibition at 25 µM ([1]; 25 μM test compound) [%]	inhibition at 100 µM ([1]; 100 μM test compound) [%]	IC50 [2] [µM]	% Inhibition 25 μM ([1]; 25 μM test compound) [%]	% Inhibition 100 μM ([1]; 100 μM test compound) [%]
O=C(Nc1ccc(-c2cccc(OC(Cc3ccccc3)C(=O)O)c2)cc1)c1ccc(Oc2ccccc2)cc1 (stereo not drawn) [Compound 37, 2-({4′-[(4-phenoxybenzoyl)amino]-1,1′-biphenyl-3-yl}oxy)-3-phenylpropanoic acid]	13	65	18.1	–	–
O=C(O)C(Cc1ccccc1)Oc1cccc(-c2ccc(NC(=O)C3(c4ccc(Cl)cc4)CC3)cc2)c1 (stereo not drawn) [Compound 29, 2-{[4′-({[1-(4-chlorophenyl)cyclopropyl]carbonyl}amino)-1,1′-biphenyl-3-yl]oxy}-3-phenylpropanoic acid]	31	83	31.2	–	–
O=C(O)COc1ccc(-c2ccc(NC(=O)C3(c4cccc(F)c4)CCCC3)cc2)cc1 [Compound 23, {[4′-({[1-(3-fluorophenyl)cyclopentyl]carbonyl}amino)-1,1′-biphenyl-4-yl]oxy}acetic acid]	3	77	–	–	–
CCCCOc1ccc2cc(C(=O)Nc3ccc(-c4ccc(OC(Cc5ccccc5)C(=O)O)cc4)cc3)ccc2c1 (stereo not drawn) [Compound 56, 2-({4′-[(6-butoxy-2-naphthoyl)amino]-1,1′-biphenyl-4-yl}oxy)-3-phenylpropanoic acid]	–	53	–	–	–
O=C(O)C(Cc1ccccc1)Oc1ccc(-c2ccc(NC(=O)C3(c4ccc(Cl)cc4)CC3)cc2)cc1 (stereo not drawn) [Compound 33, 2-{[4′-({[1-(4-chlorophenyl)cyclopropyl]carbonyl}amino)-1,1′-biphenyl-4-yl]oxy}-3-phenylpropanoic acid]	22	79	13.9	–	–
O=C(O)C(Cc1ccccc1)Oc1cccc(-c2ccc(NC(=O)C3(c4ccc(Cl)cc4)CCCC3)cc2)c1 (stereo not drawn) [Compound 26, 2-{[4′-({[1-(4-chlorophenyl)cyclopentyl]carbonyl}amino)-1,1′-biphenyl-3-yl]oxy}-3-phenylpropanoic acid]	58	69	16.4	–	–
CCCc1c(C(=O)Nc2ccc(-c3cccc(OC(Cc4ccccc4)C(=O)O)c3)cc2)cnn1-c1ccc(Cl)cc1 (stereo not drawn) [Compound 27, 2-{[4′-({[1-(4-chlorophenyl)-5-propyl-1H-pyrazol-4-yl]carbonyl}amino)-1,1′-biphenyl-3-yl]oxy}-3-phenylpropanoic acid]	20	63	7.8	–	–
O=C(O)COc1ccc(-c2ccc(NC(=O)C3(c4ccc(Cl)cc4)CCC3)cc2)cc1 [Compound 35, {[4′-({[1-(4-chlorophenyl)cyclobutyl]carbonyl}amino)-1,1′-biphenyl-4-yl]oxy}acetic acid]	15	80	39.3	–	–
O=C(O)COc1ccc(-c2ccc(CNC(=O)c3cnn(-c4ccccc4)c3C(F)(F)F)cc2)cc1 [Compound 1, ({4′-[({[1-phenyl-5-(trifluoromethyl)-1H-pyrazol-4-yl]carbonyl}amino)methyl][1,1′-biphenyl]-4-yl}oxy)acetic acid]	1	60	–	–	–
O=C(O)COc1ccc(-c2ccc(NC(=O)C3(c4ccc(Cl)cc4)CCCC3)cc2)cc1 [Compound 22, {[4′-({[1-(4-chlorophenyl)cyclopentyl]carbonyl}amino)-1,1′-biphenyl-4-yl]oxy}acetic acid]	30	89	–	–	–
CCCc1c(C(=O)NCc2ccc(-c3ccc(OCc4nnn[nH]4)c(Br)c3)cc2)cnn1-c1ccccc1 [Compound 5, N-{[3′-bromo-4′-(H-tetraazol-5-ylmethoxy)[1,1′-biphenyl]-4-yl]methyl}-1-phenyl-5-propyl-1H-pyrazole-4-carboxamide]	–	–	–	23	73
Cn1cc(C(=O)N(Cc2ccccc2)Cc2ccc(-c3ccc(OCc4nnn[nH]4)c(Br)c3)cc2)c2ccccc21 [Compound 12, N-benzyl-N-{[3′-bromo-4′-(1H-tetraazol-5-ylmethoxy)-1,1′-biphenyl-4-yl]methyl}-1-methyl-1H-indole-3-carboxamide]	55	–	–	–	–
CCCc1ccc(-c2ccc(C(=O)Nc3ccc(-c4ccc(OC(Cc5ccccc5)C(=O)O)cc4)cc3)cc2)cc1 (stereo not drawn) [Compound 20, 3-phenyl-2-[(4′-{[(4′-propyl-1,1′-biphenyl-4-yl)carbonyl]amino}-1,1′-biphenyl-4-yl)oxy]propanoic acid]	40	66	–	–	–
O=C(Nc1ccc(-c2ccc(OC(Cc3ccccc3)C(=O)O)cc2)cc1)c1ccc(-c2ccc(Cl)cc2)o1 (stereo not drawn) [Compound 21, 2-[(4′-{[5-(4-chlorophenyl)-2-furoyl]amino}-1,1′-biphenyl-4-yl)oxy]-3-phenylpropanoic acid]	28	52	–	–	–
CCCCc1oc2ccccc2c1C(=O)N(Cc1ccccc1)Cc1ccc(-c2ccc(OCc3nnn[nH]3)c(Br)c2)cc1 [Compound 11, N-benzyl-N-{[3′-bromo-4′-(1H-tetraazol-5-ylmethoxy)-1,1′-biphenyl-4-yl]methyl}-2-butyl-1-benzofuran-3-carboxamide]	53	–	–	–	–

Second part, led by results:

inhibition at 25 µM ([1]; 25 μM test compound) [%]	inhibition at 100 µM ([1]; 100 μM test compound) [%]	IC50 [2] [µM]	Compound	% Inhibition 25 μM ([1]; 25 μM test compound) [%]	% Inhibition 100 μM ([1]; 100 μM test compound) [%]
31	90	10.2	O=C(Nc1ccc(-c2cccc(OC(Cc3ccccc3)C(=O)O)c2)cc1)c1cc(-c2ccccc2Cl)oc1C(F)(F)F (stereo not drawn) [Compound 40, 2-[(4′-{[5-(2-chlorophenyl)-2-(trifluoromethyl)-3-furoyl]amino}-1,1′-biphenyl-3-yl)oxy]-3-phenylpropanoic acid]	–	–
7	78	23.2	O=C(Nc1ccc(-c2ccc(OC(Cc3ccccc3)C(=O)O)cc2)cc1)c1cc(-c2ccccc2Cl)oc1C(F)(F)F (stereo not drawn) [Compound 48, 2-[(4′-{[5-(2-chlorophenyl)-2-(trifluoromethyl)-3-furoyl]amino}-1,1′-biphenyl-4-yl)oxy]-3-phenylpropanoic acid]	–	–
14	83	18.1	O=C(O)C(Cc1ccccc1)Oc1ccc(-c2ccc(NC(=O)C3(c4ccc(Cl)cc4)CCC3)cc2)cc1 (stereo not drawn) [Compound 47, 2-{[4′-({[1-(4-chlorophenyl)cyclobutyl]carbonyl}amino)-1,1′-biphenyl-4-yl]oxy}-3-phenylpropanoic acid]	–	–
19	52	–	O=C(O)C(Cc1ccccc1)Oc1cccc(-c2ccc(NC(=O)C3(c4ccccc4)CC3)cc2)c1 (stereo not drawn) [Compound 53, 3-phenyl-2-[(4′-{[(1-phenylcyclopropyl)carbonyl]amino}-1,1′-biphenyl-3-yl)oxy]propanoic acid]	–	–
29	85	–	Cc1cc(C)c2c(c1C(=O)Nc1ccc(-c3cccc(OC(Cc4ccccc4)C(=O)O)c3)cc1)CC(C)(C)C2=O (stereo not drawn) [Compound 54, 3-phenyl-2-[(4′-{[(2,2,5,7-tetramethyl-1-oxo-2,3-dihydro-1H-inden-4-yl)carbonyl]amino}-1,1′-biphenyl-3-yl)oxy]propanoic acid]	–	–
27	95	18.7	O=C(Nc1ccc(-c2ccc(OC(Cc3ccccc3)C(=O)O)cc2)cc1)c1cc(-c2ccc(C(F)(F)F)cc2)oc1C(F)(F)F (stereo not drawn) [Compound 50, 3-phenyl-2-{[4′-({2-(trifluoromethyl)-5-[4-(trifluoromethyl)phenyl]-3-furoyl}amino)-1,1′-biphenyl-4-yl]oxy}propanoic acid]	–	–
26	88	12	O=C(Nc1ccc(-c2cccc(OC(Cc3ccccc3)C(=O)O)c2)cc1)c1cc(-c2ccc(C(F)(F)F)cc2)oc1C(F)(F)F (stereo not drawn) [Compound 43, 3-phenyl-2-{[4′-({2-(trifluoromethyl)-5-[4-(trifluoromethyl)phenyl]-3-furoyl}amino)-1,1′-biphenyl-3-yl]oxy}propanoic acid]	–	–
55	53	–	O=C(O)C(Cc1ccccc1)Oc1ccc(-c2ccc(NC(=O)C3(c4ccc(Cl)cc4)CCCC3)cc2)cc1 (stereo not drawn) [Compound 52, 2-{[4′-({[1-(4-chlorophenyl)cyclopentyl]carbonyl}amino)-1,1′-biphenyl-4-yl]oxy}-3-phenylpropanoic acid]	–	–
34	58	–	O=C(Nc1ccc(-c2ccc(OC(Cc3ccccc3)C(=O)O)cc2)cc1)c1sc2ccccc2c1Cl (stereo not drawn) [Compound 57, 2-[(4′-{[(3-chloro-1-benzothien-2-yl)carbonyl]amino}-1,1′-biphenyl-4-yl)oxy]-3-phenylpropanoic acid]	–	–
26	53	–	O=C(Nc1ccc(-c2ccc(OC(Cc3ccccc3)C(=O)O)cc2)cc1)c1ccc2ccccc2c1 (stereo not drawn) [Compound 55, 2-{[4′-(2-naphthoylamino)-1,1′-biphenyl-4-yl]oxy}-3-phenylpropanoic acid]	–	–
46	60	–	O=C(O)C(Cc1ccccc1)Oc1cccc(-c2ccc(NC(=O)C3(c4ccc(Cl)cc4)CCCCC3)cc2)c1 (stereo not drawn) [Compound 51, 2-{[4′-({[1-(4-chlorophenyl)cyclohexyl]carbonyl}amino)-1,1′-biphenyl-3-yl]oxy}-3-phenylpropanoic acid]	–	–
